Values quoted from earlier work as cited in PMC6915728 (Nature Communications, 2019).
Where two headings read alike, the source gives them in different places.

Legend:
[1] = tested on: AMP-evolved E. coli lines; conditions: ref Spohn et al 2019, cited from earlier work
From the text: Supplement 41467_2019_13618_MOESM13_ESM.xlsx, sheet "Figure 6 and S15" | column: A comprehensive dataset of antimicrobial susceptibility of AMP-adapted lines to antimicrobial peptides (AMPs).

E. coli = conditions: previous laboratory evolution experiment; cited from earlier work
From the text: The results presented in this study may have important implications for the development of AMP-based therapies. Previous works reported several instances of cross-resistance interactions between membrane-targeting peptides (Supplementary Data 1), however, the potential for cross-resistance across AMPs with different modes of action has remained poorly understood. Specifically, while cross-resistance between host and therapeutic AMPs is certainly a realistic danger, not all AMPs are equally prone to cross-resistance. Given the immense diversity of AMPs with major differences in physicochemical ...

Sequence	Relative change in MIC (MIC of the AMP-adpated line / MIC of the ancestral strain) ([1]; AMP-adapted line BAC5_3)	Relative change in MIC (MIC of the AMP-adpated line / MIC of the ancestral strain) ([1]; AMP-adapted line BAC5_5)	Relative change in MIC (MIC of the AMP-adpated line / MIC of the ancestral strain) ([1]; AMP-adapted line BAC5_7)	Relative change in MIC (MIC of the AMP-adpated line / MIC of the ancestral strain) ([1]; AMP-adapted line BAC5_10)	Relative change in MIC (MIC of the AMP-adpated line / MIC of the ancestral strain) ([1]; AMP-adapted line CAP18_2)	Relative change in MIC (MIC of the AMP-adpated line / MIC of the ancestral strain) ([1]; AMP-adapted line CAP18_5)	Relative change in MIC (MIC of the AMP-adpated line / MIC of the ancestral strain) ([1]; AMP-adapted line CAP18_6)	Relative change in MIC (MIC of the AMP-adpated line / MIC of the ancestral strain) ([1]; AMP-adapted line CAP18_8)	Relative change in MIC (MIC of the AMP-adpated line / MIC of the ancestral strain) ([1]; AMP-adapted line CAP18_10)	Relative change in MIC (MIC of the AMP-adpated line / MIC of the ancestral strain) ([1]; AMP-adapted line HBD3_3)	Relative change in MIC (MIC of the AMP-adpated line / MIC of the ancestral strain) ([1]; AMP-adapted line HBD3_6)	Relative change in MIC (MIC of the AMP-adpated line / MIC of the ancestral strain) ([1]; AMP-adapted line HBD3_8)	Relative change in MIC (MIC of the AMP-adpated line / MIC of the ancestral strain) ([1]; AMP-adapted line HBD3_10)	Relative change in MIC (MIC of the AMP-adpated line / MIC of the ancestral strain) ([1]; AMP-adapted line PEX_1)	Relative change in MIC (MIC of the AMP-adpated line / MIC of the ancestral strain) ([1]; AMP-adapted line PEX_4)	Relative change in MIC (MIC of the AMP-adpated line / MIC of the ancestral strain) ([1]; AMP-adapted line PEX_5)	Relative change in MIC (MIC of the AMP-adpated line / MIC of the ancestral strain) ([1]; AMP-adapted line PEX_6)	Relative change in MIC (MIC of the AMP-adpated line / MIC of the ancestral strain) ([1]; AMP-adapted line PEX_7)	Relative change in MIC (MIC of the AMP-adpated line / MIC of the ancestral strain) ([1]; AMP-adapted line PR39_1)	Relative change in MIC (MIC of the AMP-adpated line / MIC of the ancestral strain) ([1]; AMP-adapted line PR39_2)	other results
RWCFRVCYRGICYRKCR [TPII, Tachyplesin II, antimicrobial peptide from Japanese horseshoe crab; disrupts cell membrane; cluster C1]	1	1	1.1	1.1	1.1	1	1	1.1	1	1.2	1.2	1.2	1.2	1.1	1.2	1.1	1	1	1	0.9	Relative change in MIC (MIC of the AMP-adpated line / MIC of the ancestral strain) ([1]; AMP-adapted line LL37_1): 1.1; Relative change in MIC (MIC of the AMP-adpated line / MIC of the ancestral strain) ([1]; AMP-adapted line LL37_3): 1.1; Relative change in MIC (MIC of the AMP-adpated line / MIC of the ancestral strain) ([1]; AMP-adapted line LL37_6): 1; Relative change in MIC (MIC of the AMP-adpated line / MIC of the ancestral strain) ([1]; AMP-adapted line LL37_7): 1; Relative change in MIC (MIC of the AMP-adpated line / MIC of the ancestral strain) ([1]; AMP-adapted line LL37_10): 1; Relative change in MIC (MIC of the AMP-adpated line / MIC of the ancestral strain) ([1]; AMP-adapted line PR39_5): 0.9; Relative change in MIC (MIC of the AMP-adpated line / MIC of the ancestral strain) ([1]; AMP-adapted line PR39_7): 0.9; Relative change in MIC (MIC of the AMP-adpated line / MIC of the ancestral strain) ([1]; AMP-adapted line PR39_10): 0.9; Relative change in MIC (MIC of the AMP-adpated line / MIC of the ancestral strain) ([1]; AMP-adapted line PROA_2): 1.1; Relative change in MIC (MIC of the AMP-adpated line / MIC of the ancestral strain) ([1]; AMP-adapted line PROA_3): 0.8; Relative change in MIC (MIC of the AMP-adpated line / MIC of the ancestral strain) ([1]; AMP-adapted line PROA_7): 1; Relative change in MIC (MIC of the AMP-adpated line / MIC of the ancestral strain) ([1]; AMP-adapted line PROA_8): 1; Relative change in MIC (MIC of the AMP-adpated line / MIC of the ancestral strain) ([1]; AMP-adapted line PROA_9): 1.1; Relative change in MIC (MIC of the AMP-adpated line / MIC of the ancestral strain) ([1]; AMP-adapted line PXB_2): 1.1; Relative change in MIC (MIC of the AMP-adpated line / MIC of the ancestral strain) ([1]; AMP-adapted line PXB_5): 1; Relative change in MIC (MIC of the AMP-adpated line / MIC of the ancestral strain) ([1]; AMP-adapted line PXB_6): 1.1; Relative change in MIC (MIC of the AMP-adpated line / MIC of the ancestral strain) ([1]; AMP-adapted line PXB_8): 1; Relative change in MIC (MIC of the AMP-adpated line / MIC of the ancestral strain) ([1]; AMP-adapted line PXB_10): 1.1; Emergence of resistant lines in laboratory evolution (E. coli): did not result in any significant resistant lines
ILPWKWPWWPWRR [IND, Indolicidin, antimicrobial peptide from bovine neutrophils; cluster C3]	1.2	0.8	0.9	1	1	0.6	0.6	1	0.8	1.3	1	0.8	1.2	1	1.4	1	1	1.2	1.1	1	Relative change in MIC (MIC of the AMP-adpated line / MIC of the ancestral strain) ([1]; AMP-adapted line LL37_1): 0.8; Relative change in MIC (MIC of the AMP-adpated line / MIC of the ancestral strain) ([1]; AMP-adapted line LL37_3): 0.8; Relative change in MIC (MIC of the AMP-adpated line / MIC of the ancestral strain) ([1]; AMP-adapted line LL37_6): 0.6; Relative change in MIC (MIC of the AMP-adpated line / MIC of the ancestral strain) ([1]; AMP-adapted line LL37_7): 1; Relative change in MIC (MIC of the AMP-adpated line / MIC of the ancestral strain) ([1]; AMP-adapted line LL37_10): 0.8; Relative change in MIC (MIC of the AMP-adpated line / MIC of the ancestral strain) ([1]; AMP-adapted line PR39_5): 1.3; Relative change in MIC (MIC of the AMP-adpated line / MIC of the ancestral strain) ([1]; AMP-adapted line PR39_7): 0.9; Relative change in MIC (MIC of the AMP-adpated line / MIC of the ancestral strain) ([1]; AMP-adapted line PROA_2): 1.1; Relative change in MIC (MIC of the AMP-adpated line / MIC of the ancestral strain) ([1]; AMP-adapted line PROA_3): 0.8; Relative change in MIC (MIC of the AMP-adpated line / MIC of the ancestral strain) ([1]; AMP-adapted line PROA_7): 0.8; Relative change in MIC (MIC of the AMP-adpated line / MIC of the ancestral strain) ([1]; AMP-adapted line PROA_8): 1.1; Relative change in MIC (MIC of the AMP-adpated line / MIC of the ancestral strain) ([1]; AMP-adapted line PROA_9): 1; Relative change in MIC (MIC of the AMP-adpated line / MIC of the ancestral strain) ([1]; AMP-adapted line PXB_2): 2.1; Relative change in MIC (MIC of the AMP-adpated line / MIC of the ancestral strain) ([1]; AMP-adapted line PXB_5): 3; Relative change in MIC (MIC of the AMP-adpated line / MIC of the ancestral strain) ([1]; AMP-adapted line PXB_6): 3; Relative change in MIC (MIC of the AMP-adpated line / MIC of the ancestral strain) ([1]; AMP-adapted line PXB_8): 2.7; Relative change in MIC (MIC of the AMP-adpated line / MIC of the ancestral strain) ([1]; AMP-adapted line PXB_10): 1.6
LLGDFFRKSKEKIGKEFKRIVQRIKDFLRNLVPRTES [LL37, LL-37 human cathelicidin, human host-defense peptide; disrupts cell membrane; cluster C2]	1	1.2	1.1	1.1	6.3	3.7	1.2	6.3	8.2	1.7	1.2	1.7	1.7	1.1	16	0.9	1	1	1.2	1.2	Relative change in MIC (MIC of the AMP-adpated line / MIC of the ancestral strain) ([1]; AMP-adapted line PR39_5): 0.9; Relative change in MIC (MIC of the AMP-adpated line / MIC of the ancestral strain) ([1]; AMP-adapted line PR39_7): 1; Relative change in MIC (MIC of the AMP-adpated line / MIC of the ancestral strain) ([1]; AMP-adapted line PR39_10): 0.8; Relative change in MIC (MIC of the AMP-adpated line / MIC of the ancestral strain) ([1]; AMP-adapted line PROA_2): 1; Relative change in MIC (MIC of the AMP-adpated line / MIC of the ancestral strain) ([1]; AMP-adapted line PROA_3): 0.8; Relative change in MIC (MIC of the AMP-adpated line / MIC of the ancestral strain) ([1]; AMP-adapted line PROA_7): 0.9; Relative change in MIC (MIC of the AMP-adpated line / MIC of the ancestral strain) ([1]; AMP-adapted line PROA_8): 1; Relative change in MIC (MIC of the AMP-adpated line / MIC of the ancestral strain) ([1]; AMP-adapted line PROA_9): 0.9; Relative change in MIC (MIC of the AMP-adpated line / MIC of the ancestral strain) ([1]; AMP-adapted line PXB_2): 1; Relative change in MIC (MIC of the AMP-adpated line / MIC of the ancestral strain) ([1]; AMP-adapted line PXB_5): 0.9; Relative change in MIC (MIC of the AMP-adpated line / MIC of the ancestral strain) ([1]; AMP-adapted line PXB_6): 1; Relative change in MIC (MIC of the AMP-adpated line / MIC of the ancestral strain) ([1]; AMP-adapted line PXB_8): 1; Relative change in MIC (MIC of the AMP-adpated line / MIC of the ancestral strain) ([1]; AMP-adapted line PXB_10): 1
